Source: ChEMBL document CHEMBL4616637, “Proximicins F and G and Diproximicin A: Aminofurans from the Marine-Derived Verrucosispora sp. SCSIO 40062 by Overexpression of PPtase Genes” (J Nat Prod, 2020)
≈ marks a conversion by molar mass, not a printed value. Calls of active or inactive are those of the source. The calls are words filed in the database; no cut-off is given here.

Tests used:
[1] = tested on: Staphylococcus aureus; experiment: Antibacterial activity against Staphylococcus aureus ATCC 29213 by CLSI based susceptibility test method; format: functional
[2] = tested on: Staphylococcus aureus; experiment: Antibacterial activity against methicillin-resistant Staphylococcus aureus shhsA1 by CLSI based susceptibility test method; format: functional
[3] = tested on: Bacillus subtilis; experiment: Antibacterial activity against Bacillus subtilis 1064 by CLSI based susceptibility test method; format: functional
[4] = tested on: Micrococcus luteus; experiment: Antibacterial activity against Micrococcus luteus SCSIO ML01 by CLSI based susceptibility test method; format: functional
[5] = organism: Homo sapiens; experiment: Inhibition of alpha-glucosidase (unknown origin) at 20 uM using pNPG as substrate preincubated for 15 mins followed by substrate addition and measured after 15 mins
[6] = target: T1, Tyrosinase (Homo sapiens) (UniProt P14679); experiment: Inhibition of tyrosinase (unknown origin) at 20 uM using L-DOPA as substrate
T1 sequence (whole entry): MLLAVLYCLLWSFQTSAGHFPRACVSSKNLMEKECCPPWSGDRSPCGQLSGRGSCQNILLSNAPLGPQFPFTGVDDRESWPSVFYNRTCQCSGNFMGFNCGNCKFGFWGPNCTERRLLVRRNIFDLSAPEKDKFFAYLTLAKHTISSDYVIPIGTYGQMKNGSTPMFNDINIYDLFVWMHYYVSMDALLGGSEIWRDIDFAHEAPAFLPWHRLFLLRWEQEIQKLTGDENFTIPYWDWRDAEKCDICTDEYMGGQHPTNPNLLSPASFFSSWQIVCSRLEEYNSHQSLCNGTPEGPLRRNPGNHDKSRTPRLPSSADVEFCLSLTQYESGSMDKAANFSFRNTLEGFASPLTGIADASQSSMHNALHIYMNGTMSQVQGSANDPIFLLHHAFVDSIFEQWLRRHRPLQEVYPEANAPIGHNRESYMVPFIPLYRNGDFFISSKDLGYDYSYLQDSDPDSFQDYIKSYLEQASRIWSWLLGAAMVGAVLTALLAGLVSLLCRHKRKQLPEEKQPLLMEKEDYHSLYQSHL

[7] = target: Acetylcholinesterase (Electrophorus electricus) (UniProt O42275); experiment: Inhibition of electric eel AChE at 20 uM using acetylthiocholine iodide as substrate incubated for 6 mins by Ellman's method
[8] = tested on: SF-268; experiment: Cytotoxicity against human SF268 cells assessed as reduction in cell viability after 48 hrs by SRB assay; format: functional, cell-based; details: SF-268, 48 h
[9] = tested on: MCF7; experiment: Cytotoxicity against human MCF7 cells assessed as reduction in cell viability after 48 hrs by SRB assay; format: functional, cell-based; details: MCF7, 48 h
[10] = tested on: HepG2; experiment: Cytotoxicity against human HepG2 cells assessed as reduction in cell viability after 48 hrs by SRB assay; format: functional, cell-based; details: HepG2, 48 h
[11] = tested on: A549; experiment: Cytotoxicity against human A549 cells assessed as reduction in cell viability after 48 hrs by SRB assay; format: functional, cell-based; details: A549, 48 h

Sequence of Acetylcholinesterase (Electrophorus electricus) (O42275 24-633 limits assumed): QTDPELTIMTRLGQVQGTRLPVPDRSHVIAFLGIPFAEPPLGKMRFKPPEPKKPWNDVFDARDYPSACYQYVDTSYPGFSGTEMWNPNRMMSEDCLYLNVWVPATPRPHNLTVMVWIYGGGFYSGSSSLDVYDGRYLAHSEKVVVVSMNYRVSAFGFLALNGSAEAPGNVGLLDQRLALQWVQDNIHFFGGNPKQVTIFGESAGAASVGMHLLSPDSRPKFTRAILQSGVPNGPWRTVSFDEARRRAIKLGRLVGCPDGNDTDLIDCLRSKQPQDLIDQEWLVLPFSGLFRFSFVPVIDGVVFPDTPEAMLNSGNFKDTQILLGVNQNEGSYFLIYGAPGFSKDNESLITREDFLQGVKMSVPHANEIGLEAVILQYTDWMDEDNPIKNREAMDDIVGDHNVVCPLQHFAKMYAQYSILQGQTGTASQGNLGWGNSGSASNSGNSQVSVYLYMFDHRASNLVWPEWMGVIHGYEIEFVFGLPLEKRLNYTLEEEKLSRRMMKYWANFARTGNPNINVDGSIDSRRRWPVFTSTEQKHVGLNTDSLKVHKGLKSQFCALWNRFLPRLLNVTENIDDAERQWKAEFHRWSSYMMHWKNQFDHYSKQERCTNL

For `CNC(=O)c1cc(NC(=O)c2cc(NC(=O)OC)co2)co1`, the MIC [1] was > 64 µg/mL, the MIC [2] was > 64 µg/mL and the MIC [3] was > 64 µg/mL. For the same compound, the MIC [4] was > 64 µg/mL, the inhibition [5] was “inactive” and the inhibition [6] was “inactive”. The inhibition [7] was “inactive”, the IC50 [8] was > 10 µM and the IC50 [9] was > 10 µM. The IC50 [10] was > 10 µM and the IC50 [11] was > 10 µM.

In the case of `COC(=O)Nc1coc(C(=O)Nc2coc(C(=O)NCCCCCNC(=O)c3cc(NC(=O)c4cc(NC(=O)OC)co4)co3)c2)c1`, the MIC [1] is reported as > 64 µg/mL, the MIC [2] is reported as > 64 µg/mL and the MIC [3] is reported as > 64 µg/mL. For the same compound, the MIC [4] was > 64 µg/mL, the inhibition [5] was “inactive” and the inhibition [6] was “inactive”. For the same compound, the inhibition [7] was “inactive”, the IC50 [8] was > 10 µM and the IC50 [9] was > 10 µM. The IC50 [10] was > 10 µM and the IC50 [11] was > 10 µM.

In the case of `COC(=O)Nc1coc(C(=O)Nc2coc(C(=O)NCCc3ccccc3)c2)c1`, the MIC [1] is reported as > 64 µg/mL, the MIC [2] is reported as > 64 µg/mL and the MIC [3] is reported as 32 µg/mL (≈ 80.5 µM). For the same compound, the MIC [4] was > 64 µg/mL, the inhibition [5] was “inactive” and the inhibition [6] was “inactive”. For the same compound, the inhibition [7] was “inactive”.

In the case of `CC1(C)S[C@@H]2[C@H](NC(=O)[C@H](N)c3ccccc3)C(=O)N2[C@H]1C(=O)O` [AMPICILLIN], the MIC [1] is reported as 0.25 µg/mL (≈ 0.715 µM), the MIC [2] is reported as > 64 µg/mL and the MIC [3] is reported as 0.25 µg/mL (≈ 0.715 µM). The MIC [4] was 0.5 µg/mL (≈ 1.43 µM).

For `C[S+](C)[O-]` [DIMETHYL SULFOXIDE], the MIC [1] was > 64 µg/mL, the MIC [2] was > 64 µg/mL and the MIC [3] was > 64 µg/mL. The MIC [4] was > 64 µg/mL.

In the case of `COC(=O)Nc1coc(C(=O)Nc2coc(C(=O)NCCc3ccc(O)cc3)c2)c1` [PROXIMICIN B], the MIC [1] is reported as 16 µg/mL (≈ 38.7 µM), the MIC [2] is reported as 16 µg/mL (≈ 38.7 µM) and the MIC [3] is reported as 8 µg/mL (≈ 19.4 µM). For the same compound, the MIC [4] was > 64 µg/mL, the inhibition [5] was “inactive” and the inhibition [6] was “inactive”. The inhibition [7] was “inactive”, the IC50 [8] was > 10 µM and the IC50 [9] was > 10 µM. For the same compound, the IC50 [10] was > 10 µM and the IC50 [11] was > 10 µM.

For `COC(=O)Nc1coc(C(=O)Nc2coc(C(=O)NCCc3c[nH]c4ccccc34)c2)c1` [PROXIMICIN C], the MIC [1] was > 64 µg/mL, the MIC [2] was > 64 µg/mL and the MIC [3] was > 64 µg/mL. For the same compound, the MIC [4] was > 64 µg/mL, the inhibition [5] was “inactive” and the inhibition [6] was “inactive”. The inhibition [7] was “inactive”, the IC50 [8] was > 10 µM and the IC50 [9] was > 10 µM. The IC50 [10] was > 10 µM and the IC50 [11] was > 10 µM.

With `COc1cc(Cc2cnc(N)nc2N)cc(OC)c1OC` [TRIMETHOPRIM] the MIC [1] was 2 µg/mL (≈ 6.89 µM), the MIC [2] was > 64 µg/mL and the MIC [3] was 0.25 µg/mL (≈ 0.861 µM). It also gave an MIC [4] of 2 µg/mL (≈ 6.89 µM).

`CN[C@H](CC(C)C)C(=O)N[C@H]1C(=O)N[C@@H](CC(N)=O)C(=O)N[C@H]2C(=O)N[C@H]3C(=O)N[C@H](C(=O)N[C@H](C(=O)O)c4cc(O)cc(O)c4-c4cc3ccc4O)[C@H](O)c3ccc(c(Cl)c3)Oc3cc2cc(c3O[C@@H]2O[C@H](CO)[C@@H](O)[C@H](O)[C@H]2O[C@H]2C[C@](C)(N)[C@H](O)[C@H](C)O2)Oc2ccc(cc2Cl)[C@H]1O` [VANCOMYCIN] showed an MIC [3] of 0.5 µg/mL (≈ 0.345 µM) and an MIC [4] of 0.25 µg/mL (≈ 0.173 µM).
